What follows are molecules tested against T1, GST-tagged-Wee1 kinase (Homo sapiens, UniProt P30291) (assay: Wee1 time-resolved fluorescence equilibrium binding assay (displacement of Oregon Green-labeled ATP-competitive kinase probe)). Conditions: read-out: Wee-1 inhibition (Ki).
T1 construct: purchased Carnabio (Carna Biosciences) 05-177
Method in brief: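 Ki values derive from competitive displacement, under equilibrium, of a fast-reversible ATP-site Oregon Green kinase probe from GST-tagged Wee1, detected by time-resolved fluorescence.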

T1 sequence (P30291 whole entry): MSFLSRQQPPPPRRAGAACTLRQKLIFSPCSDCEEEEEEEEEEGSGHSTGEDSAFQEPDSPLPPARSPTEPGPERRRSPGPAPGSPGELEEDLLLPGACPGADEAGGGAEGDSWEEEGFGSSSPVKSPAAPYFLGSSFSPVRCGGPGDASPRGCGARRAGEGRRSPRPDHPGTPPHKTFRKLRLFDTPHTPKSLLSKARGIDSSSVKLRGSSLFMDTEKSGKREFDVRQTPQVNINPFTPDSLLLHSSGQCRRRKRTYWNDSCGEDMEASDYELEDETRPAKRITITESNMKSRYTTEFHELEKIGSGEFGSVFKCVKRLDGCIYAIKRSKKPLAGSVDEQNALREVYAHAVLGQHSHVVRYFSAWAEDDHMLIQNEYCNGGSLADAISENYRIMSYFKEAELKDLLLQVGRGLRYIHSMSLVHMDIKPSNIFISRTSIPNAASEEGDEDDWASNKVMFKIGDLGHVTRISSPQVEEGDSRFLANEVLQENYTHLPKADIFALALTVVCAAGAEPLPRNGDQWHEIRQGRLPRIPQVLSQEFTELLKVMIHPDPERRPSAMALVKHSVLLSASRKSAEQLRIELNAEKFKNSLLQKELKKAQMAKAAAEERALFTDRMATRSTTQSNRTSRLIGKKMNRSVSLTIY

SMILES	Ki [nM]
O=C1CN(c2ccc(Nc3ncc4c(=O)n(-c5c(Cl)cccc5Cl)c5nccn5c4n3)cc2)CCN1 [Example 143, 6-(2,6-dichlorophenyl)-2-{[4-(3-oxopiperazin-1-yl)phenyl]amino}imidazo[1,2-a]pyrimido[5,4-e]pyrimidin-5(6H)-one]	< 10
CC(=O)N1CCc2ccc(Nc3ncc4c(=O)n(-c5c(Cl)cccc5Cl)c5nccn5c4n3)cc2C1 [Example 329, 2-[(2-acetyl-1,2,3,4-tetrahydroisoquinolin-7-yl)amino]-6-(2,6-dichlorophenyl)imidazo[1,2-a]pyrimido[5,4-e]pyrimidin-5(6H)-one]	< 10
CCNC(=O)c1ccc(Nc2ncc3c(=O)n(-c4ccccc4Cl)c4nccn4c3n2)cc1 [Example 47, 4-{[6-(2-chlorophenyl)-5-oxo-5,6-dihydroimidazo[1,2-a]pyrimido[5,4-e]pyrimidin-2-yl]amino}-N-ethylbenzamide]	10 to 100
N#CCCN1CCN(c2ccc(Nc3ncc4c(=O)n(-c5ccccc5Cl)c5nccn5c4n3)cc2)CC1 [Example 232, 3-[4-(4-{[6-(2-chlorophenyl)-5-oxo-5,6-dihydroimidazo[1,2-a]pyrimido[5,4-e]pyrimidin-2-yl]amino}phenyl)piperazin-1-yl]propanenitrile]	10 to 100
CC(=O)N1Cc2cc(Nc3ncc4c(=O)n(-c5c(F)cccc5Cl)c5nccn5c4n3)ccc2C2(CC2)C1 [Example 241, 2-[(2′-acetyl-2′,3′-dihydro-1′H-spiro[cyclopropane-1,4′-isoquinolin]-7′-yl)amino]-6-(2-chloro-6-fluorophenyl)imidazo[1,2-a]pyrimido[5,4-e]pyrimidin-5(6H)-one]	< 10
CC1SC(c2ccc(Nc3ncc4c(=O)n(-c5ccccc5Cl)c5nccn5c4n3)cc2)NC1=O (stereo not drawn) [Example 221, 6-(2-chlorophenyl)-2-{[4-(5-methyl-4-oxo-1,3-thiazolidin-2-yl)phenyl]amino}imidazo[1,2-a]pyrimido[5,4-e]pyrimidin-5(6H)-one]	10 to 100
O=c1c2cnc(Nc3ccc(N4CCNCC4)nc3)nc2n2ccnc2n1-c1ccccc1Cl [Example 81, 6-(2-chlorophenyl)-2-{[6-(piperazin-1-yl)pyridin-3-yl]amino}imidazo[1,2-a]pyrimido[5,4-e]pyrimidin-5(6H)-one]	< 10
O=c1c2cnc(Nc3ccc(N4CCC(O)CC4)cc3)nc2n2ccnc2n1-c1ccccc1Cl [Example 138, 6-(2-chlorophenyl)-2-{[4-(4-hydroxypiperidin-1-yl)phenyl]amino}imidazo[1,2-a]pyrimido[5,4-e]pyrimidin-5(6H)-one]	< 10
CS(=O)(=O)N1CC2(CCN(c3ccc(Nc4ncc5c(=O)n(-c6c(Cl)cccc6Cl)c6nccn6c5n4)cc3)CC2)C1 [Example 299, 6-(2,6-dichlorophenyl)-2-({4-[2-(methylsulfonyl)-2,7-diazaspiro[3.5]non-7-yl]phenyl}amino)imidazo[1,2-a]pyrimido[5,4-e]pyrimidin-5(6H)-one]	< 10
CN(C)[C@@H]1CCN(c2ccc(Nc3ncc4c(=O)n(-c5c(Cl)cccc5Cl)c5nccn5c4n3)cc2)C1 [Example 283, 6-(2,6-dichlorophenyl)-2-({4-[(3R)-3-(dimethylamino)pyrrolidin-1-yl]phenyl}amino)imidazo[1,2-a]pyrimido[5,4-e]pyrimidin-5(6H)-one]	< 10
O=c1c2cnc(Nc3ccc(-c4cn5c(n4)SCC5)cc3)nc2n2ccnc2n1-c1ccccc1Cl [Example 220, 6-(2-chlorophenyl)-2-{[4-(2,3-dihydroimidazo[2,1-b][1,3]thiazol-6-yl)phenyl]amino}imidazo[1,2-a]pyrimido[5,4-e]pyrimidin-5(6H)-one]	10 to 100
CS(=O)(=O)N1Cc2cc(Nc3ncc4c(=O)n(-c5c(Cl)cc(F)cc5Cl)c5nccn5c4n3)ccc2C2(CC2)C1 [Example 172, 6-(2,6-dichloro-4-fluorophenyl)-2-{[2′-(methylsulfonyl)-2′,3′-dihydro-1′H-spiro[cyclopropane-1,4′-isoquinolin]-7′-yl]amino}imidazo[1,2-a]pyrimido[5,4-e]pyrimidin-5(6H)-one]	< 10
Cc1c(O)cccc1-n1c(=O)c2cnc(Nc3ccccc3)nc2n2ccnc12 [Example 54, 6-(3-hydroxy-2-methylphenyl)-2-(phenylamino)imidazo[1,2-a]pyrimido[5,4-e]pyrimidin-5(6H)-one]	10 to 100
Cc1cc(Nc2ncc3c(=O)n(-c4ccccc4Cl)c4nccn4c3n2)ccc1O [Example 102, 6-(2-chlorophenyl)-2-[(4-hydroxy-3-methylphenyl)amino]imidazo[1,2-a]pyrimido[5,4-e]pyrimidin-5(6H)-one]	< 10
CC1(C)CN(CC(F)(F)F)Cc2cc(Nc3ncc4c(=O)n(-c5ccccc5Cl)c5nccn5c4n3)ccc21 [Example 162, 6-(2-chlorophenyl)-2-{[4,4-dimethyl-2-(2,2,2-trifluoroethyl)-1,2,3,4-tetrahydroisoquinolin-7-yl]amino}imidazo[1,2-a]pyrimido[5,4-e]pyrimidin-5(6H)-one]	10 to 100
CCN(CCN(C)C)c1ccc(Nc2ncc3c(=O)n(-c4ccccc4Cl)c4nccn4c3n2)cc1 [Example 262, 6-(2-chlorophenyl)-2-[(4-{[2-(dimethylamino)ethyl](ethyl)amino}phenyl)amino]imidazo[1,2-a]pyrimido[5,4-e]pyrimidin-5(6H)-one]	< 10
Cc1cc(Nc2ncc3c(=O)n(-c4c(F)cccc4Cl)c4nccn4c3n2)ccc1N1CCCN(C)CC1 [Example 96, 6-(2-chloro-6-fluorophenyl)-2-{[3-methyl-4-(4-methyl-1,4-diazepan-1-yl)phenyl]amino}imidazo[1,2-a]pyrimido[5,4-e]pyrimidin-5(6H)-one]	< 10

The next lines start with the values.

Ki [nM]	SMILES
10 to 100	CCN(CC)S(=O)(=O)c1ccc(Nc2ncc3c(=O)n(-c4ccccc4Cl)c4nccn4c3n2)cc1 [Example 294, 4-{[6-(2-chlorophenyl)-5-oxo-5,6-dihydroimidazo[1,2-a]pyrimido[5,4-e]pyrimidin-2-yl]amino}-N,N-diethylbenzenesulfonamide]
< 10	CC(C)C(=O)N1Cc2cc(Nc3ncc4c(=O)n(-c5c(Cl)cccc5Cl)c5nccn5c4n3)ccc2C2(CC2)C1 [Example 274, 6-(2,6-dichlorophenyl)-2-{[2′-(2-methylpropanoyl)-2′,3′-dihydro-1′H-spiro[cyclopropane-1,4′-isoquinolin]-7′-yl]amino}imidazo[1,2-a]pyrimido[5,4-e]pyrimidin-5(6H)-one]
10 to 100	CN1CCN(c2ccc(Nc3ncc4c(=O)n(-c5cccc(F)c5)c5nccn5c4n3)cc2)CC1 [Example 336, 6-(3-fluorophenyl)-2-{[4-(4-methylpiperazin-1-yl)phenyl]amino}imidazo[1,2-a]pyrimido[5,4-e]pyrimidin-5(6H)-one]
< 10	CC(C)N1CCN(c2ccc(Nc3ncc4c(=O)n(-c5c(Cl)cccc5Cl)c5nccn5c4n3)cc2)CC1 [Example 115, 6-(2,6-dichlorophenyl)-2-({4-[4-(propan-2-yl)piperazin-1-yl]phenyl}amino)imidazo[1,2-a]pyrimido[5,4-e]pyrimidin-5(6H)-one]
10 to 100	CN1CCCc2ccc(Nc3ncc4c(=O)n(-c5ccccc5Cl)c5nccn5c4n3)cc21 [Example 18, 6-(2-chlorophenyl)-2-[(1-methyl-1,2,3,4-tetrahydroquinolin-7-yl)amino]imidazo[1,2-a]pyrimido[5,4-e]pyrimidin-5(6H)-one]
< 10	O=c1c2cnc(Nc3ccc(N4CCCCC4)cc3)nc2n2ccnc2n1-c1ccccc1Cl [Example 8, 6-(2-chlorophenyl)-2-{[4-(piperidin-1-yl)phenyl]amino}imidazo[1,2-a]pyrimido[5,4-e]pyrimidin-5(6H)-one]
< 10	CN(C)[C@H]1CCN(c2ccc(Nc3ncc4c(=O)n(-c5c(Cl)cccc5Cl)c5nccn5c4n3)cc2)C1 [Example 315, 6-(2,6-dichlorophenyl)-2-({4-[(3S)-3-(dimethylamino)pyrrolidin-1-yl]phenyl}amino)imidazo[1,2-a]pyrimido[5,4-e]pyrimidin-5(6H)-one]
> 100	COc1cccc(-n2c(=O)c3cnc(Nc4ccccc4)nc3n3ccnc23)c1C [Example 344, 6-(3-methoxy-2-methylphenyl)-2-(phenylamino)imidazo[1,2-a]pyrimido[5,4-e]pyrimidin-5(6H)-one]
10 to 100	N#CCCN(c1ccc(Nc2ncc3c(=O)n(-c4ccccc4Cl)c4nccn4c3n2)cc1)C1CC1 [Example 233, 3-[(4-{[6-(2-chlorophenyl)-5-oxo-5,6-dihydroimidazo[1,2-a]pyrimido[5,4-e]pyrimidin-2-yl]amino}phenyl)(cyclopropyl)amino]propanenitrile]
< 10	CN1Cc2cc(Nc3ncc4c(=N)n(-c5ccccc5Cl)c5nccn5c4n3)ccc2C(C)(C)C1 [Example 335, 6-(2-chlorophenyl)-5-imino-N-(2,4,4-trimethyl-1,2,3,4-tetrahydroisoquinolin-7-yl)-5,6-dihydroimidazo[1,2-a]pyrimido[5,4-e]pyrimidin-2-amine]
< 10	O=c1c2cnc(Nc3ccc4c(c3)CCCNC4)nc2n2ccnc2n1-c1ccccc1Cl [Example 106, 6-(2-chlorophenyl)-2-(2,3,4,5-tetrahydro-1H-2-benzazepin-7-ylamino)imidazo[1,2-a]pyrimido[5,4-e]pyrimidin-5(6H)-one]
< 10	CC1(C)CN(CCF)Cc2cc(Nc3ncc4c(=O)n(-c5c(F)cccc5Cl)c5nccn5c4n3)ccc21 [Example 281, 6-(2-chloro-6-fluorophenyl)-2-{[2-(2-fluoroethyl)-4,4-dimethyl-1,2,3,4-tetrahydroisoquinolin-7-yl]amino}imidazo[1,2-a]pyrimido[5,4-e]pyrimidin-5(6H)-one]
< 10	CN1CCC2(CC1)CCN(c1ccc(Nc3ncc4c(=O)n(-c5c(Cl)cccc5Cl)c5nccn5c4n3)cc1)CC2 [Example 323, 6-(2,6-dichlorophenyl)-2-{[4-(9-methyl-3,9-diazaspiro[5.5]undec-3-yl)phenyl]amino}imidazo[1,2-a]pyrimido[5,4-e]pyrimidin-5(6H)-one]

Source: patent publication US8710065B2, “Tricyclic inhibitors of kinases” (AbbVie Inc., priority 2011, dated 2014)
